# Measured values: PubChem BioAssay (NCI)
#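 In this assay, cells in 96-well plates receive the compound at five concentrations for 48 hours. Endpoints are linearly interpolated between the surrounding concentrations. GI50 is the concentration that inhibits growth by half. At the TGI there is no net growth.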
# Assays:
# Assay in all cases: inhibition of tumour cell growth, NCI panel, 48 h
# SF-268 CNS = tested on: SF-268 CNS
# PC-3 prostate = tested on: PC-3 prostate
# NCI-H226 lung = tested on: NCI-H226 lung
# ACHN renal = tested on: ACHN renal
# K-562 leukemia = tested on: K-562 leukemia
# SNB-75 CNS = tested on: SNB-75 CNS
# UACC-62 melanoma = tested on: UACC-62 melanoma
# RPMI-8226 leukemia = tested on: RPMI-8226 leukemia
# OVCAR-3 ovarian = tested on: OVCAR-3 ovarian
# MOLT-4 leukemia = tested on: MOLT-4 leukemia
SMILES,GI50 (SF-268 CNS) [µM],TGI (SF-268 CNS) [µM],GI50 (PC-3 prostate) [µM],TGI (PC-3 prostate) [µM],GI50 (NCI-H226 lung) [µM],TGI (NCI-H226 lung) [µM],GI50 (ACHN renal) [µM],TGI (ACHN renal) [µM],GI50 (K-562 leukemia) [µM],TGI (K-562 leukemia) [µM],GI50 (SNB-75 CNS) [µM],TGI (SNB-75 CNS) [µM],GI50 (UACC-62 melanoma) [µM],TGI (UACC-62 melanoma) [µM],GI50 (RPMI-8226 leukemia) [µM],TGI (RPMI-8226 leukemia) [µM],GI50 (OVCAR-3 ovarian) [µM],TGI (OVCAR-3 ovarian) [µM],TGI (MOLT-4 leukemia) [µM],GI50 (MOLT-4 leukemia) [µM]
O=C(COc1cccc(/C=C2\CSc3ccccc3C2=O)c1)Nc1nccs1,1.76,3.35,1.82,4.24,13.1,30.6,2.66,7.96,2.79,> 100,1.13,12.5,1.48,3.12,0.653,2.79,1.62,2.98,–,–
COC(=O)c1ccc(NC(=O)Oc2ccc(N(CCCl)CCCl)cc2)cc1,1.94,18.5,11.4,> 100,12.1,50.6,1.4,16.4,4.85,> 100,6.16,54.5,3.36,23.5,6.5,> 100,7.77,22.3,–,–
CN(CCCNC(=O)CCOCCOCCOCCNC(=O)Cc1ccc2ccc3cccc4ccc1c2c34)CCCNc1cc(-c2ccc3ccccc3c2)nc2ccccc12,0.54,1.14,0.435,0.988,3.94,13.3,0.823,2.2,0.0668,0.146,0.51,0.994,1.12,4.55,–,–,0.572,1.17,–,–
CC(=O)O[C@H]1CC[C@@]2(C)C(=CC[C@@H]3C2CC[C@]2(C)Nc4nc5ccccc5cc4CC32)C1 (some centres not stated),–,14.9,–,–,–,8.25,–,16.9,–,11.6,–,8.68,–,22.9,–,42.1,–,8.53,11.7,–
C=CCc1cc(OC)c2c(c1)C(OC)CC(c1ccc(OC)c(OC)c1)O2 (configuration not stated),–,> 100,–,–,–,–,–,> 100,–,> 100,–,> 100,–,> 100,–,> 100,–,> 100,> 100,–
CN(C)C(=S)SCC(=O)Nc1ccccc1,–,> 100,–,–,–,> 100,–,> 100,–,> 100,–,> 100,–,> 100,–,> 100,–,> 100,> 100,–
COc1cccc(/C=C2\COc3ccc(-c4ccccc4)cc3C2=O)c1,3.52,11.6,2.87,16.2,2.57,6.79,2.13,5.59,3.32,> 100,1.99,4.8,3.06,12.8,–,–,–,–,> 100,3.09
CCOc1ccc(NC(=O)CC2C(=O)Nc3ccccc3S2(=O)=O)cc1 (configuration not stated),–,> 100,–,–,–,90.3,–,> 100,–,> 100,–,43.2,–,–,–,> 100,–,> 100,> 100,–
Cn1nc(-c2ccccc2)c2c(/C=C/c3ccccc3)onc2c1=O,–,> 100,–,–,–,> 100,–,> 100,–,> 100,–,64.5,–,> 100,–,> 100,–,> 100,> 100,–
O=S(=O)(c1cnccc1N1CCN(CCO)CC1)N1CCCC1,–,> 100,–,> 100,–,> 100,–,> 100,–,> 100,–,> 100,–,> 100,–,> 100,–,> 100,–,–
CC1(c2ccc(Cl)cc2)C2C(=O)NC(=O)C1C(=O)NC2=O (configuration not stated),–,> 100,–,–,–,–,–,> 100,–,> 100,–,> 100,–,> 100,–,> 100,–,> 100,> 100,–
Brc1ccc2ns[s+]c2c1,–,> 100,–,–,–,> 100,–,> 100,–,> 100,–,> 100,–,> 20.5,–,> 100,–,> 100,> 100,–
CC(=O)OC1COC(n2c(=S)n(-c3ccccc3)c(=O)c3ccccc32)C(OC(C)=O)C1OC(C)=O (configuration not stated),–,> 100,–,–,–,> 100,–,> 100,–,> 100,–,> 100,–,> 100,–,> 100,–,> 100,> 100,–
O=C(CN1C(=O)S/C(=C\C(Cl)=C\c2ccccc2)C1=O)NC1C=CS(=O)(=O)C1 (configuration not stated),2.44,8.55,2.15,7.33,–,–,0.931,8.65,0.4,> 100,0.387,12.6,1.13,3.16,0.477,4.33,0.729,2.33,> 100,0.621
CN1CCN(CCCOc2cccc3nc(Nc4ccc(Cl)c(C(F)(F)F)c4)ccc23)CC1,1.85,3.66,1.57,3.03,2.07,4.89,1.59,3.07,1.62,3.34,1.52,3.78,1.72,3.27,–,–,1.81,3.31,–,–
O=C(CC(Cl)=C(Cl)Cl)c1cccc(Cl)c1Cl,> 100,> 100,78.3,> 100,75.1,> 100,47.7,> 100,–,–,–,–,52.4,> 100,82.7,> 100,–,–,> 100,24
O=C1Cc2cc(C(=O)NC3C[C@H]4CC[C@@H](C3)N4S(=O)(=O)CC3CCN(CCCC(F)(F)F)CC3)c(Cl)cc2N1 (some centres not stated),> 100,> 100,> 100,> 100,> 100,> 100,> 100,> 100,–,–,> 100,> 100,> 100,> 100,> 100,> 100,> 100,> 100,> 100,> 100
CCN1CCN(C(=O)[C@]23CCC(C)(C)C[C@@H]2C2=CC[C@@H]4[C@@]5(C)C/C(=C/c6ccncc6)C(=O)C(C)(C)[C@@H]5CC[C@@]4(C)[C@]2(C)CC3)CC1,–,–,0.833,2.2,2,4.31,1.6,2.95,1.6,> 100,–,–,1.46,2.82,1.25,4.64,1.49,2.91,–,–
CC(=O)c1c(C)[nH]c(-c2nc3ccc(N4CCN(C)CC4)cc3[nH]2)c1-c1ccccc1,5.24,39.6,1.04,> 100,1.93,49.5,0.876,12.3,0.779,> 100,0.0416,0.937,0.274,12.7,–,–,1.11,15,> 100,6.47

SMILES,GI50 (SF-268 CNS) [µM],TGI (SF-268 CNS) [µM],GI50 (PC-3 prostate) [µM],TGI (PC-3 prostate) [µM],GI50 (NCI-H226 lung) [µM],TGI (NCI-H226 lung) [µM],GI50 (ACHN renal) [µM],TGI (ACHN renal) [µM],GI50 (K-562 leukemia) [µM],TGI (K-562 leukemia) [µM],GI50 (SNB-75 CNS) [µM],TGI (SNB-75 CNS) [µM],GI50 (UACC-62 melanoma) [µM],TGI (UACC-62 melanoma) [µM],GI50 (RPMI-8226 leukemia) [µM],TGI (RPMI-8226 leukemia) [µM],GI50 (OVCAR-3 ovarian) [µM],TGI (OVCAR-3 ovarian) [µM],TGI (MOLT-4 leukemia) [µM],GI50 (MOLT-4 leukemia) [µM]
CCOC(=O)C1(C)CCCCC(=O)N1 (configuration not stated),–,> 100,–,–,–,–,–,> 100,–,> 100,–,> 100,–,> 100,–,–,–,> 100,–,–
CC(=O)C1=C(O)C2C3c4c[nH]c5cccc(c45)CC3C(C)(C)N2C1=O (configuration not stated),–,> 100,–,–,–,71.4,–,> 100,–,> 100,–,–,–,> 100,–,> 100,–,74.3,> 100,–
O=C1c2ccccc2C(=O)c2c(OCCOCCO)cccc21,–,> 100,–,> 100,–,–,–,> 100,–,> 100,–,> 100,–,19.1,–,–,–,> 100,> 100,–
COc1cc2c3c(n(C)c(=O)c2cc1OC)-c1ccc(C#N)cc1C3=O,> 100,> 100,> 100,> 100,> 100,> 100,> 100,> 100,> 100,> 100,–,–,> 100,> 100,> 100,> 100,> 100,> 100,> 100,> 100
O=C(Nc1nc2c(ncn2C2OC(CO)C(O)C2O)c(=O)[nH]1)c1ccccc1 (configuration not stated),–,> 100,–,–,–,> 100,–,> 100,–,> 100,–,> 100,–,> 100,–,> 100,–,> 100,–,–
CCCCCCC[CH2][Sn]1([CH2]CCCCCCC)[O]C(=O)c2cccnc2[O]1,–,–,–,–,> 100,> 100,> 100,> 100,> 100,> 100,> 100,> 100,> 100,> 100,> 100,> 100,> 100,> 100,> 100,> 100
COC(=O)CSSCc1ccc([N+](=O)[O-])cc1,–,45.9,–,81,–,–,–,36.2,–,> 100,–,55.2,–,31.5,–,54.8,–,46.5,> 100,–
c1ccc2c(c1)cc1n2CC2CN=NC12 (configuration not stated),–,> 100,–,–,–,> 100,–,> 100,–,> 100,–,> 100,–,> 100,–,> 100,–,> 100,> 100,–
CC(SC(=O)Nc1ccc(N=Nc2ccccc2)cc1)C(=O)O (configuration not stated),–,48.9,–,–,–,> 100,–,> 100,–,> 100,–,46.4,–,> 100,–,> 100,–,> 100,> 100,–
C#CCOc1ccc2ncnc(Nc3ccc(NC(=O)C=C)cc3)c2c1,71.3,> 100,70.4,> 100,> 100,> 100,28.2,> 100,3.38,23.6,–,–,47.3,> 100,2.63,7.44,8.24,> 100,> 100,28.4
CSC(=Nc1ccccc1)/N=C(\SCc1ccccc1)N(C)C,–,2.48,–,2.55,–,3.1,–,2.39,–,> 100,–,3.25,–,1.87,–,3.57,–,2.1,–,–
COc1cc(CCc2ccc(N)cc2)cc(OC)c1OC,–,> 100,–,–,–,> 100,–,> 100,–,> 100,–,> 100,–,> 89.8,–,> 100,–,> 100,> 100,–
COc1cc2nc3cc([N+](=O)[O-])ccc3c(NCCNCC(C)(C)O)c2cc1OC,0.491,2.54,0.581,2.47,1.28,4.05,0.657,4.19,–,–,0.608,2.05,–,–,1.49,5.8,0.373,1.3,10.7,0.354
COc1ccc(/C=C/C(=O)c2sc(-n3nc(-c4ccccc4)cc3-c3ccccc3)nc2C)cc1,> 100,> 100,–,–,> 100,> 100,> 100,> 100,–,> 100,56.1,> 100,> 100,> 100,–,> 100,–,> 100,> 100,–
Cc1ccc(S(=O)(=O)N/N=C(/c2nc3ccc([N+](=O)[O-])cc3[nH]c2=O)C(O)c2ccc(C(O)/C(=N\NS(=O)(=O)c3ccc(C)cc3)c3nc4ccc([N+](=O)[O-])cc4[nH]c3=O)cc2)cc1 (configuration not stated),–,–,–,–,–,–,–,> 100,–,> 100,–,> 100,–,> 100,–,> 100,–,> 100,> 100,–
CN(c1ccccc1)c1c(Cl)c(=O)oc2c1ccc1occc12,–,–,–,–,–,> 100,–,> 100,–,> 100,–,> 100,–,> 100,–,> 100,–,> 100,> 100,–
CC(=O)NNc1nc(C)c(C(=O)NNC(=O)C(=O)Nc2ccc(Cl)cc2Cl)s1,–,78.6,–,–,–,> 100,–,87.9,–,50.2,–,–,–,57.4,–,> 100,–,50.5,57,–
CC1=C(C(=O)Nc2cc(F)c(F)cc2F)C(c2ccc([N+](=O)[O-])cc2)C(C(=O)Nc2cc(F)c(F)cc2F)=C(C)N1,–,> 100,–,–,–,> 100,–,> 100,–,> 100,–,63,–,–,–,45.1,–,80.8,> 100,–
